Results published in PubChem BioAssay (NCI).
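Values below derive from 48-hour exposures of cells grown in 96-well plates, with endpoints linearly interpolated between the two concentrations bracketing the appropriate inhibition level. GI50: concentration for 50% inhibition of growth. At the TGI there is no net growth.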

How the values were obtained:
Test in all cases: NCI tumour cell line growth inhibition, 48 h
786-0 renal = test system: 786-0 renal
A498 renal = test system: A498 renal
UACC-257 melanoma = test system: UACC-257 melanoma
SF-295 CNS = test system: SF-295 CNS
A549 NSCLC = test system: A549 NSCLC
MDA-MB-468 breast = test system: MDA-MB-468 breast
SW-620 colon = test system: SW-620 colon
NCI-H23 lung = test system: NCI-H23 lung
MOLT-4 leukemia = test system: MOLT-4 leukemia
M14 melanoma = test system: M14 melanoma
SF-268 CNS = test system: SF-268 CNS
SK-MEL-28 melanoma = test system: SK-MEL-28 melanoma
TK-10 renal = test system: TK-10 renal
K-562 leukemia = test system: K-562 leukemia
T-47D breast = test system: T-47D breast
HOP-62 NSCLC = test system: HOP-62 NSCLC
HCC-2998 colon = test system: HCC-2998 colon
SNB-19 CNS = test system: SNB-19 CNS
NCI-H460 lung = test system: NCI-H460 lung
MDA-MB-435 = test system: MDA-MB-435
SN12C renal = test system: SN12C renal
UO-31 renal = test system: UO-31 renal
RPMI-8226 leukemia = test system: RPMI-8226 leukemia
SK-MEL-2 melanoma = test system: SK-MEL-2 melanoma
HT29 colon = test system: HT29 colon
NCI/ADR-RES ovarian = test system: NCI/ADR-RES ovarian
COLO 205 colon = test system: COLO 205 colon
OVCAR-4 ovarian = test system: OVCAR-4 ovarian
SK-MEL-5 melanoma = test system: SK-MEL-5 melanoma
OVCAR-3 ovarian = test system: OVCAR-3 ovarian
PC-3 prostate = test system: PC-3 prostate
HCT-116 colon = test system: HCT-116 colon
DU-145 prostate = test system: DU-145 prostate
HS 578T breast = test system: HS 578T breast
HOP-92 NSCLC = test system: HOP-92 NSCLC
NCI-H226 lung = test system: NCI-H226 lung
HL-60(TB) leukemia = test system: HL-60(TB) leukemia
HCT-15 colon = test system: HCT-15 colon
MCF7 breast = test system: MCF7 breast
BT-549 breast = test system: BT-549 breast
OVCAR-8 ovarian = test system: OVCAR-8 ovarian
KM12 colon = test system: KM12 colon
SK-OV-3 ovarian = test system: SK-OV-3 ovarian
NCI-H522 lung = test system: NCI-H522 lung
EKVX NSCLC = test system: EKVX NSCLC
RXF 393 renal = test system: RXF 393 renal
CCRF-CEM leukemia = test system: CCRF-CEM leukemia
OVCAR-5 ovarian = test system: OVCAR-5 ovarian
MDA-MB-231 breast = test system: MDA-MB-231 breast
SR leukemia = test system: SR leukemia
SNB-75 CNS = test system: SNB-75 CNS
UACC-62 melanoma = test system: UACC-62 melanoma
LOX IMVI melanoma = test system: LOX IMVI melanoma
SF-539 CNS = test system: SF-539 CNS
U251 CNS = test system: U251 CNS
MALME-3M melanoma = test system: MALME-3M melanoma
IGROV1 ovarian = test system: IGROV1 ovarian
CAKI-1 renal = test system: CAKI-1 renal
ACHN renal = test system: ACHN renal

## CC(=O)Nc1cccc(-c2nc3cc(-c4ccc(O)cc4)ccc3n2C)c1
786-0 renal
  GI50: 28.2 µM
  TGI: > 100 µM
A498 renal
  GI50: 19.2 µM
  TGI: 67.6 µM
UACC-257 melanoma
  GI50: 3.76 µM
  TGI: 15.5 µM
SF-295 CNS
  GI50: 10.1 µM
  TGI: 36.2 µM
A549 NSCLC
  GI50: 12.1 µM
  TGI: 60.1 µM
MDA-MB-468 breast
  GI50: 1.83 µM
  TGI: 7.12 µM
SW-620 colon
  GI50: 16.8 µM
  TGI: 42.9 µM
NCI-H23 lung
  GI50: 10.6 µM
  TGI: 31 µM
MOLT-4 leukemia
  GI50: 4.6 µM
  TGI: 29.5 µM
M14 melanoma
  GI50: 12.9 µM
  TGI: 26.8 µM
SF-268 CNS
  GI50: 17.7 µM
  TGI: > 100 µM
SK-MEL-28 melanoma
  GI50: 11.4 µM
  TGI: 29.6 µM
TK-10 renal
  GI50: 19.4 µM
  TGI: 81.5 µM
K-562 leukemia
  GI50: 8.91 µM
  TGI: > 100 µM
T-47D breast
  GI50: 2.91 µM
  TGI: 11.9 µM
HOP-62 NSCLC
  GI50: 28.1 µM
  TGI: 65.4 µM
HCC-2998 colon
  GI50: 17.1 µM
  TGI: 74 µM
SNB-19 CNS
  GI50: 27.2 µM
  TGI: > 100 µM
NCI-H460 lung
  GI50: 11.6 µM
  TGI: 36.4 µM
MDA-MB-435
  GI50: 5.29 µM
  TGI: 19.3 µM
SN12C renal
  GI50: 17.8 µM
  TGI: > 100 µM
UO-31 renal
  GI50: 10.8 µM
  TGI: 31.8 µM
RPMI-8226 leukemia
  GI50: 4.7 µM
  TGI: 23.8 µM
SK-MEL-2 melanoma
  GI50: 8.73 µM
  TGI: 26.1 µM
HT29 colon
  GI50: 24 µM
  TGI: > 100 µM
NCI/ADR-RES ovarian
  GI50: 21 µM
  TGI: 63.5 µM
COLO 205 colon
  GI50: 17.3 µM
  TGI: 34.2 µM
OVCAR-4 ovarian
  GI50: 3.64 µM
  TGI: 27.2 µM
SK-MEL-5 melanoma
  GI50: 3.24 µM
  TGI: 11.6 µM
OVCAR-3 ovarian
  GI50: 16.2 µM
  TGI: 63.5 µM
PC-3 prostate
  GI50: 13.7 µM
  TGI: 65 µM
HCT-116 colon
  GI50: 15.1 µM
  TGI: 50.9 µM
DU-145 prostate
  GI50: 16.6 µM
  TGI: 65.3 µM
HS 578T breast
  GI50: 19.7 µM
  TGI: > 100 µM
HOP-92 NSCLC
  GI50: 11.7 µM
  TGI: > 100 µM
NCI-H226 lung
  GI50: 7.76 µM
  TGI: 51.7 µM
HL-60(TB) leukemia
  GI50: 10.6 µM
  TGI: 39.7 µM
HCT-15 colon
  GI50: 18.8 µM
  TGI: 68.8 µM
MCF7 breast
  GI50: 4.38 µM
  TGI: 22.2 µM
BT-549 breast
  GI50: 5.07 µM
  TGI: 17.7 µM
OVCAR-8 ovarian
  GI50: 10.8 µM
  TGI: 26.9 µM
KM12 colon
  GI50: 12.8 µM
  TGI: 29.7 µM
SK-OV-3 ovarian
  GI50: 25.8 µM
  TGI: 96.5 µM
NCI-H522 lung
  GI50: 5.16 µM
  TGI: 20.7 µM
EKVX NSCLC
  GI50: 13.8 µM
  TGI: 51 µM
RXF 393 renal
  GI50: 11.4 µM
  TGI: 39.5 µM
CCRF-CEM leukemia
  GI50: 6.06 µM
  TGI: 50 µM
OVCAR-5 ovarian
  GI50: 25.8 µM
  TGI: 93.5 µM
MDA-MB-231 breast
  GI50: 23.7 µM
  TGI: > 100 µM
SR leukemia
  GI50: 12.3 µM
  TGI: > 100 µM
SNB-75 CNS
  GI50: 9.43 µM
  TGI: 46.3 µM
UACC-62 melanoma
  GI50: 7.42 µM
  TGI: 24.9 µM
LOX IMVI melanoma
  GI50: 14.3 µM
  TGI: 31.7 µM
SF-539 CNS
  GI50: 16.1 µM
  TGI: 62.8 µM
U251 CNS
  GI50: 18.3 µM
  TGI: > 100 µM
MALME-3M melanoma
  GI50: 5.01 µM
  TGI: 18.6 µM
IGROV1 ovarian
  GI50: 14.4 µM
  TGI: 46.6 µM
CAKI-1 renal
  GI50: 11.5 µM
  TGI: 49.2 µM
ACHN renal
  GI50: 5.17 µM
  TGI: 47.7 µM
